The values below come from ChEMBL document CHEMBL1123473, “4,5-Disubstituted primaquine analogues as potential antimalarial agents” (1986).

Experiment [1] concerns Plasmodium cynomolgi. In words: Antimalarial activity against Plasmodium cynomolgi in rhesus monkey 1.0 mg/kg; 0 of 2. The class given is functional.
In experiment [2] the test system is Plasmodium cynomolgi. Kind of experiment: Antimalarial activity against Plasmodium cynomolgi in rhesus monkey at a dose 0.1 mg/kg; 0 of 1. It counts as functional.
Experiment [3] relates to Rhesus monkey. In words: Number of days between the end of the treatment and relapse was reported at a dose 1.0 mg/kg. It counts as functional, Cercopithecidae.
In experiment [4] the test system is Rhesus monkey. Kind of experiment: Number of days between the end of the treatment and relapse was reported at a dose 0.1 mg/kg. It counts as functional, Cercopithecidae.
In experiment [5] the test system is Plasmodium cynomolgi. Kind of experiment: Antimalarial activity against Plasmodium cynomolgi infected Rhesus monkeys (Macaca mulatta) at 0.0625 mg/kg dose; cured 0 of 2. The class given is functional.
The test system of experiment [6] is Plasmodium cynomolgi. In words: Antimalarial activity against Plasmodium cynomolgi in rhesus monkey at a dose 0.125 mg/kg; 2 of 2. The class given is functional.
Experiment [7] deals with Plasmodium cynomolgi. Kind of experiment: Antimalarial activity against Plasmodium cynomolgi infected rhesus monkey at 0.25 mg/kg; 2 of 2. The class given is functional.
The test system of experiment [8] is Plasmodium cynomolgi. In words: Antimalarial activity against Plasmodium cynomolgi infected rhesus monkey at 0.5 mg/kg dose; 1 of 1. The class given is functional.
Experiment [9] relates to Plasmodium cynomolgi. Kind of experiment: Antimalarial activity against Plasmodium cynomolgi in rhesus monkey 0.316 mg/kg; 1 of 2. It counts as functional.
Experiment [10] deals with Plasmodium cynomolgi. In words: Antimalarial activity against Plasmodium cynomolgi in rhesus monkey 1.0 mg; 2 of 2. It counts as functional.
Experiment [11] deals with Plasmodium cynomolgi. In words: Antimalarial activity against Plasmodium cynomolgi in rhesus monkey at a dose 0.1 mg/kg; 0 of 2. It counts as functional.
For experiment [12], the system named is Rhesus monkey. In words: Number of days between the end of the treatment and relapse was reported at a dose 0.316 mg/kg. The class given is functional, Cercopithecidae.
Experiment [13] has as its system Plasmodium cynomolgi. In words: Antimalarial activity against Plasmodium cynomolgi infected rhesus monkey at 0.25 mg/kg dose; 0 of 6. It counts as functional.
The subject of experiment [14] is Plasmodium cynomolgi. Kind of experiment: Antimalarial activity against Plasmodium cynomolgi infected rhesus monkey at 0.5 mg/kg dose; cured 4 of 6. The class given is functional.
For experiment [15], the system named is Plasmodium cynomolgi. In words: Antimalarial activity against Plasmodium cynomolgi infected rhesus monkey at 0.75 mg/kg dose; 4 of 6. It counts as functional.
In experiment [16] the test system is Plasmodium cynomolgi. Kind of experiment: Antimalarial activity against Plasmodium cynomolgi in rhesus monkey 1.0 mg/kg; 0 of 1. It counts as functional.
In experiment [17] the test system is Plasmodium cynomolgi. Kind of experiment: Antimalarial activity against Plasmodium cynomolgi in rhesus monkey 0.316 mg/kg; 0 of 1. It counts as functional.
Experiment [18] deals with Plasmodium cynomolgi. Kind of experiment: Antimalarial activity against Plasmodium cynomolgi in rhesus monkey 1.0 mg/kg; 1 of 2. The class given is functional.

Take `COc1cc(NC(C)CCCN)c2nccc(COc3cccc(C(F)(F)F)c3)c2c1Oc1cccc(C(F)(F)F)c1` (centres undefined): the Cures in the experiment on Plasmodium cynomolgi [1] and in the experiment with Plasmodium cynomolgi [2] was 0 in each case. Also, the Relapses in the experiment on Rhesus monkey [3] and with Rhesus monkey [4] was 11 throughout.
`COc1cc(NC(C)CCCN)c2nccc(C)c2c1OC` (centres undefined): the Cures in the experiment on Plasmodium cynomolgi [5] was determined as 0; in the experiment on Plasmodium cynomolgi [6] it was 2; in the experiment on Plasmodium cynomolgi [7], 2; in the experiment on Plasmodium cynomolgi [8], 1.
In the case of `COCc1ccnc2c(NC(C)CCCN)cc(OC)c(Oc3cccc(C(F)(F)F)c3)c12` (centres undefined), the Cures with Plasmodium cynomolgi [9] is on record as 1; with Plasmodium cynomolgi [10] it was 2; in the experiment with Plasmodium cynomolgi [11], 0. For the same compound, the Relapses worked out at 28 in the experiment on Rhesus monkey [12] and 8 in the experiment with Rhesus monkey [4].
For the compound `COc1cc(NC(C)CCCN)c2ncccc2c1` (centres undefined) [PRIMAQUINE], the figures for the Cures in the experiment with Plasmodium cynomolgi [13], in the experiment with Plasmodium cynomolgi [14] and in the experiment with Plasmodium cynomolgi [15] were 0, 4 and 4, respectively.
As for `COc1cc(NC(C)CCCN)c2nccc(COc3cccc(C(F)(F)F)c3)c2c1OC` (centres undefined), in the experiment with Plasmodium cynomolgi [16], the Cures is 0. Further, the Relapses in the experiment with Rhesus monkey [3] amounted to 12.
For the compound `C=Cc1ccnc2c(NC(C)CCCN)cc(OC)c(OC)c12` (centres undefined), the Cures with Plasmodium cynomolgi [17] was 0; in the experiment on Plasmodium cynomolgi [18], 1; with Plasmodium cynomolgi [2], 0. Also, the Relapses with Rhesus monkey [12] came out at 23; with Rhesus monkey [3], 27; in the experiment on Rhesus monkey [4] it was 9.
